US20230364032A1, “USE OF 2-HOBA TO TREAT ATHEROSCLEROSIS” (Vanderbilt University, priority 2020, published 2023)
“Also recorded” adds a separate entry of the source.

Columns and labels:
[1] = 2-HOBA and 4-HOBA levels in plasma and tissues of C57BL/6J mice after intraperitoneal injection (LC/MS); format: in vivo, mouse; settings: for liver, spleen, and kidney levels of 2-HOBA versus 4-HOBA: 30 min after intraperitoneal injection
Procedure: FIG. 12A-12D show the levels of 2-HOBA or 4-HOBA in plasma and tissues from C57BL/6J mice. A. Plasma samples were collected from female C57BL/6J mice on a chow diet after intraperitoneal injection of 1 mg 2-HOBA (n=3) or 1 mg 4-HOBA (n=3). *p<0.01, Student t test. B-D. Levels of 2-HOBA and 4-HOBA in liver (B), spleen (C), and kidney (D) of WT mice 30 min after intraperitoneal injection. (Mean±SEM shown for each, N.S. Student t test). The levels of 2-HOBA or 4-HOBA were measured in the plasma and tissues using LC/MS as described in the Methods.
Measurement of 2-HOBA and 4-HOBA was performed by LC/MS after derivatization with phenylisothiocyanate (PITC), and using [^2H4]-2-HOBA as an internal standard as previously described for 2-HOBA^71 (See FIG. 23). For these assays, the Waters Xevo-TQ-Smicro triple quadrupole mass spectrometer operating in positive ion multiple reaction monitoring (MRM) mode monitored the following transitions: for PITC-2-HOBA or PITC-4-HOBA, m/z 259→107@20 eV (quantifier transition) and m/z 259→153 @20 eV (qualifier transition); for PITC-[^2H4]2-HOBA m/z 263 →107@20 eV (quantifier transition), m/z 263→111 @20 eV (qualifier transition). Abundance for PITC-2-HOBA was calculated based on the ratio of peak area versus that of PITC-[^2H4]2-HOBA. Because the transition reactions for PITC-4-HOBA are less efficient than for PITC-2-HOBA, the ratio of peak areas for PITC-4-HOBA/PITC-[^2l H4]2-HOBA was multiplied by the correction factors 3.9 and 5.7 when using the m/z 107 and m/z 153 transition, respectively (See FIG. 24).

MDA-apoAI = assay: Plasma MDA-apoAI by immunoprecipitation and western blotting; format: in vivo, mouse
Procedure: FIGS. 7A-7G show the effects of 2-HOBA on MDA-HDL adducts and HDL function. (7A) The levels or MDA adducts were measured by ELISA in HDL isolated from Ldlr mice treated as described in FIG. 1. Data are presented as mean±SEM (N=8 pet group), *** p<0.001, One-way ANOVA with Bonferroni's post hoc test. (7B) Western blots of apoAl and MDA-apoAl in HDL isolated from plasma by immunoprecipitation using primary anti-apoAl antibody. Ldlf mice were treated as described In FIG. 1 and apoAl and MDA-apoAl from Ldlr mice consuming a chow diet are included f0t comparison. (7C) Quantitation using lmageJ software of the mean density ratio (arbitrary units) of MDA-apoAl to apoAl detected by Western blotting (7B). […]
The study was approved by the Vanderbilt University Institutional Review Board (IRB), and all participants gave their written informed consent. […] After stopping the reaction, the O.D. was measured at 450 nm wavelength. MDA-ApoAI was detected in mouse plasma by immunoprecipitation of ApoAI and western blotting. […] Proteins were visualized and quantitated by Odyssey 3.0 Quantification software (LI-COR).

Structure (SMILES) | liver, spleen, and kidney levels of 2-HOBA versus 4-HOBA [1] | clearance, 4-HOBA vs 2-HOBA ([1]; after intraperitoneal injection) | plasma levels after intraperitoneal injection, 4-HOBA vs 2-HOBA ([1]; female C57BL/6J mice, 1 mg i.p.) | plasma levels of MDA-apoAI compared to Ldlr−/− mice consuming a chow diet (MDA-apoAI; after 16 weeks on the western-type diet) | plasma MDA-apoAI adducts (MDA-apoAI; Ldlr−/− mice consuming a western diet)
NCc1ccc(O)cc1 [4-HOBA, 4-hydroxybenzylamine, reference compound] | not significantly different | more rapid clearance; also recorded: cleared more rapidly | slightly higher initially | markedly increased | –
NCc1ccccc1O [2-HOBA, 2-hydroxybenzylamine] | not significantly different | – | – | – | inhibited; also recorded: dramatically reduced
